From ChEMBL document CHEMBL3832761, “MMV Pathogen Box Bioactivity Data” (2017)
Converted amounts (≈) assume the structure as drawn.

Columns and labels:
Type in all cases: functional
[1] = test system: Mycobacterium tuberculosis; assay: AntiMycobacterium tuberculosis activity Non-Replicating form: Average MIC90 (uM)
[2] = test system: Mycobacterium tuberculosis; assay: AntiMycobacterium tuberculosis activity 1-week GAST/Fe MIC (uM); details: 168 h
[3] = test system: Mycobacterium tuberculosis; assay: AntiMycobacterium tuberculosis activity 2-week GAST/Fe MIC (uM); details: 336 h
[4] = test system: Mycobacterium tuberculosis; assay: AntiMycobacterium tuberculosis activity 1-week 7H9/ADC/Tw MIC (uM); details: 168 h
[5] = test system: Mycobacterium tuberculosis; assay: AntiMycobacterium tuberculosis activity 2-week 7H9/ADC/Tw MIC (uM); details: 336 h
[6] = test system: Mycobacterium tuberculosis; assay: AntiMycobacterium tuberculosis activity 2-week Alamar Blue 7H9/ADC/Tw MIC (uM); details: 336 h
[7] = test system: Mycobacterium tuberculosis; assay: AntiMycobacterium tuberculosis activity 1-week 7H9/glucose/BSA/Tx MIC (uM); details: 168 h
[8] = test system: Mycobacterium tuberculosis; assay: AntiMycobacterium tuberculosis activity 2-week 7H9/glucose/BSA/Tx MIC (uM); details: 336 h
[9] = test system: Mycobacterium tuberculosis; assay: AntiMycobacterium tuberculosis activity 1-week 7H9/DPPC/cholesterol/BSA/Tx MIC (uM); details: 168 h
[10] = test system: Mycobacterium tuberculosis; assay: AntiMycobacterium tuberculosis activity 2-week 7H9/DPPC/cholesterol/BSA/Tx MIC (uM); details: 336 h
[11] = test system: Mycobacterium tuberculosis; assay: AntiMycobacterium tuberculosis activity 1-week 7H9/cholesterol/BSA/Tx MIC (uM); details: 168 h
[12] = test system: Mycobacterium tuberculosis; assay: AntiMycobacterium tuberculosis activity 2-week Alamar Blue 7H9/cholesterol/BSA/Tx MIC (uM); details: 336 h
[13] = test system: Mycobacterium tuberculosis; assay: (§1) AntiMycobacterium tuberculosis activity day 10 in 7H9/2.5mM butyrate/pH6/0.1mM nitrite MIC90 (uM); details: 240 h
[14] = test system: Mycobacterium tuberculosis; assay: AntiMycobacterium tuberculosis activity day 21 in 7H9/2.5mM butyrate/pH6/0.1mM nitrite MIC90 (uM); details: 504 h
[15] = test system: Mycobacterium tuberculosis; assay: as §1; details: 240 h; remark: listed apart in the source
[16] = test system: Mycobacterium tuberculosis; assay: AntiMycobacterium tuberculosis activity day 21 MIC99 in 7H9/2.5mM butyrate/pH6/0.1mM nitrite MIC99 (uM); details: 504 h
[17] = test system: Mycobacterium tuberculosis; assay: AntiMycobacterium tuberculosis activity Replicating form: Average MIC90 (uM)
[18] = test system: HepG2; assay: HepG2 CC50 (uM) Cytotoxicity; details: Homo sapiens

SMILES | MIC90 [1] | MIC [2] | MIC [3] | MIC [4] | MIC [5] | MIC [6] | MIC [7] | MIC [8] | MIC [9] | MIC [10] | MIC [11] | MIC [12] | MIC90 [13] | MIC90 [14] | MIC90 [15] | MIC [16] | MIC90 [17] | CC50 [18]
O=C(NCc1ccco1)N1CCN(Cc2ccc(Cl)s2)CC1 | 90.2 µM (≈ 30.6 µg/mL) | 0.6 µM (≈ 0.204 µg/mL) | 1.2 µM (≈ 0.408 µg/mL) | > 50 µM | > 50 µM | 12.5 µM (≈ 4.25 µg/mL) | > 50 µM | > 50 µM | 37 µM (≈ 12.6 µg/mL) | 50 µM (≈ 17 µg/mL) | 37 µM (≈ 12.6 µg/mL) | 12.5 µM (≈ 4.25 µg/mL) | 50 µM (≈ 17 µg/mL) | > 50 µM | > 50 µM | > 50 µM | > 100 µM | > 100 µM
CCCc1ccc(S(=O)(=O)Nc2ccc(CN3CCN(CC4CC4)CC3)cc2)cc1 | 47.4 µM (≈ 20.3 µg/mL) | 12.5 µM (≈ 5.35 µg/mL) | 12.5 µM (≈ 5.35 µg/mL) | 19 µM (≈ 8.12 µg/mL) | 19 µM (≈ 8.12 µg/mL) | 19 µM (≈ 8.12 µg/mL) | 9.4 µM (≈ 4.02 µg/mL) | 9.4 µM (≈ 4.02 µg/mL) | 4.7 µM (≈ 2.01 µg/mL) | 6.25 µM (≈ 2.67 µg/mL) | 6.25 µM (≈ 2.67 µg/mL) | 6.25 µM (≈ 2.67 µg/mL) | 50 µM (≈ 21.4 µg/mL) | 50 µM (≈ 21.4 µg/mL) | > 50 µM | > 50 µM | 18.7 µM (≈ 8.01 µg/mL) | 17.7 µM
CC1=NN(c2nc3ccccc3s2)C(=O)C1Cc1cccc2ccccc12 (stereo unspecified) | > 100 µM | 1.56 µM (≈ 0.579 µg/mL) | 3.13 µM (≈ 1.16 µg/mL) | 19 µM (≈ 7.06 µg/mL) | 25 µM (≈ 9.29 µg/mL) | 25 µM (≈ 9.29 µg/mL) | 12.5 µM (≈ 4.64 µg/mL) | 12.5 µM (≈ 4.64 µg/mL) | 12.5 µM (≈ 4.64 µg/mL) | 12.5 µM (≈ 4.64 µg/mL) | 12.5 µM (≈ 4.64 µg/mL) | 19 µM (≈ 7.06 µg/mL) | 6.25 µM (≈ 2.32 µg/mL) | 12.5 µM (≈ 4.64 µg/mL) | 12.5 µM (≈ 4.64 µg/mL) | 12.5 µM (≈ 4.64 µg/mL) | 96.7 µM (≈ 35.9 µg/mL) | 21.9 µM
COc1ccc(Nc2ccccc2NC(=O)c2ccc(O)nc2)cc1 | 17.8 µM (≈ 5.97 µg/mL) | < 0.02 µM | < 0.02 µM | 37 µM (≈ 12.4 µg/mL) | 37 µM (≈ 12.4 µg/mL) | 12.5 µM (≈ 4.19 µg/mL) | 37 µM (≈ 12.4 µg/mL) | 37 µM (≈ 12.4 µg/mL) | 0.6 µM (≈ 0.201 µg/mL) | 2.3 µM (≈ 0.771 µg/mL) | 0.3 µM (≈ 0.101 µg/mL) | 0.6 µM (≈ 0.201 µg/mL) | 1.5 µM (≈ 0.503 µg/mL) | 6.25 µM (≈ 2.1 µg/mL) | > 50 µM | > 50 µM | 28.6 µM (≈ 9.59 µg/mL) | 42.5 µM
Cc1cccc(-c2nc(Nc3ccncn3)c3sccc3n2)n1 | 0.09 µM (≈ 0.0288 µg/mL) | 6.25 µM (≈ 2 µg/mL) | 12.5 µM (≈ 4 µg/mL) | 4.7 µM (≈ 1.51 µg/mL) | 9.4 µM (≈ 3.01 µg/mL) | 9.4 µM (≈ 3.01 µg/mL) | ≥ 50 µM | > 50 µM | 37 µM (≈ 11.9 µg/mL) | > 50 µM | 37 µM (≈ 11.9 µg/mL) | 6.25 µM (≈ 2 µg/mL) | 3.12 µM (≈ 1 µg/mL) | 6.25 µM (≈ 2 µg/mL) | 6.25 µM (≈ 2 µg/mL) | 6.25 µM (≈ 2 µg/mL) | 2.5 µM (≈ 0.801 µg/mL) | 14.3 µM
Cc1nc2ccccn2c1C(=O)NCc1ccc(Cl)cc1 | 2 µM (≈ 0.6 µg/mL) | 0.05 µM (≈ 0.015 µg/mL) | 0.07 µM (≈ 0.021 µg/mL) | > 50 µM | > 50 µM | 4.7 µM (≈ 1.41 µg/mL) | 25 µM (≈ 7.49 µg/mL) | > 50 µM | 2.3 µM (≈ 0.689 µg/mL) | 25 µM (≈ 7.49 µg/mL) | 9.4 µM (≈ 2.82 µg/mL) | 3.13 µM (≈ 0.938 µg/mL) | 50 µM (≈ 15 µg/mL) | 50 µM (≈ 15 µg/mL) | > 50 µM | > 50 µM | > 100 µM | > 100 µM
C[C@]1(COc2ccc(N3CCC(Oc4ccc(OC(F)(F)F)cc4)CC3)cc2)Cn2cc([N+](=O)[O-])nc2O1 | 0.2 µM (≈ 0.107 µg/mL) | 0.1 µM (≈ 0.0534 µg/mL) | 0.15 µM (≈ 0.0802 µg/mL) | 0.07 µM (≈ 0.0374 µg/mL) | 0.15 µM (≈ 0.0802 µg/mL) | 0.15 µM (≈ 0.0802 µg/mL) | 0.2 µM (≈ 0.107 µg/mL) | 0.05 µM (≈ 0.0267 µg/mL) | < 0.02 µM | 0.1 µM (≈ 0.0534 µg/mL) | 0.05 µM (≈ 0.0267 µg/mL) | 0.6 µM (≈ 0.321 µg/mL) | 0.39 µM (≈ 0.208 µg/mL) | 12.5 µM (≈ 6.68 µg/mL) | > 50 µM | > 50 µM | 0.08 µM (≈ 0.0428 µg/mL) | 72.5 µM
CC(C)(C)c1cnc(NC(=O)c2ccccc2O)s1 | 21 µM (≈ 5.81 µg/mL) | 19 µM (≈ 5.25 µg/mL) | 25 µM (≈ 6.91 µg/mL) | > 50 µM | > 50 µM | > 50 µM | > 50 µM | > 50 µM | > 50 µM | > 50 µM | > 50 µM | > 50 µM | 50 µM (≈ 13.8 µg/mL) | 50 µM (≈ 13.8 µg/mL) | > 50 µM | > 50 µM | 81.9 µM (≈ 22.6 µg/mL) | 47.6 µM
COc1ccc2nc(C)cc(OCC(=O)Nc3ccccc3OC)c2c1 | 1.61 µM (≈ 0.567 µg/mL) | 0.05 µM (≈ 0.0176 µg/mL) | 0.1 µM (≈ 0.0352 µg/mL) | 37 µM (≈ 13 µg/mL) | > 50 µM | 2.3 µM (≈ 0.81 µg/mL) | 25 µM (≈ 8.81 µg/mL) | 50 µM (≈ 17.6 µg/mL) | 1.56 µM (≈ 0.55 µg/mL) | 25 µM (≈ 8.81 µg/mL) | 12.5 µM (≈ 4.4 µg/mL) | 2.3 µM (≈ 0.81 µg/mL) | > 50 µM | > 50 µM | > 50 µM | > 50 µM | > 50 µM | 57.4 µM
NC(=O)c1cc(-c2ccsc2)ccc1OCCOc1ccccc1 | 3.96 µM (≈ 1.34 µg/mL) | 0.39 µM (≈ 0.132 µg/mL) | 0.6 µM (≈ 0.204 µg/mL) | > 50 µM | > 50 µM | 19 µM (≈ 6.45 µg/mL) | > 50 µM | > 50 µM | 12.5 µM (≈ 4.24 µg/mL) | > 50 µM | > 50 µM | 6.25 µM (≈ 2.12 µg/mL) | > 50 µM | > 50 µM | > 50 µM | > 50 µM | > 100 µM | > 100 µM
Cc1nnc(NCc2cccc(Cl)c2)c2ccccc12 | 4.61 µM (≈ 1.31 µg/mL) | 0.2 µM (≈ 0.0568 µg/mL) | 0.6 µM (≈ 0.17 µg/mL) | 50 µM (≈ 14.2 µg/mL) | > 50 µM | 1.56 µM (≈ 0.443 µg/mL) | > 50 µM | > 50 µM | ≥ 50 µM | > 50 µM | 19 µM (≈ 5.39 µg/mL) | > 50 µM | 25 µM (≈ 7.09 µg/mL) | > 50 µM | > 50 µM | > 50 µM | > 100 µM | 76 µM
CCc1nc2ccc(Cl)cn2c1C(=O)NCc1ccc(N2CCC(c3ccc(OC(F)(F)F)cc3)CC2)cc1 [TELACEBEC] | 0.01 µM (≈ 0.00557 µg/mL) | < 0.02 µM | < 0.02 µM | > 50 µM | > 50 µM | 0.02 µM (≈ 0.0111 µg/mL) | 0.1 µM (≈ 0.0557 µg/mL) | > 50 µM | < 0.02 µM | 0.02 µM (≈ 0.0111 µg/mL) | < 0.02 µM | 0.02 µM (≈ 0.0111 µg/mL) | ≤ 0.04 µM | ≤ 0.04 µM | ≤ 0.04 µM | ≤ 0.04 µM | 0.01 µM (≈ 0.00557 µg/mL) | > 100 µM
